Experimental data from ChEMBL document CHEMBL1201862, “PubChem BioAssay data set” (2004).
The source made the active and inactive calls.

How the values were obtained:
[1] = target: T1, Type-1 angiotensin II receptor (Homo sapiens, UniProt P30556); assay: AT1 receptor antagonists, dose response, selectivity assay for APJ receptor antagonist project, cell-based, uHTS hits (AID 463214); type: functional;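 further: antagonist potency against angiotensin II stimulated AT1 response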
T1 sequence (P30556 whole entry): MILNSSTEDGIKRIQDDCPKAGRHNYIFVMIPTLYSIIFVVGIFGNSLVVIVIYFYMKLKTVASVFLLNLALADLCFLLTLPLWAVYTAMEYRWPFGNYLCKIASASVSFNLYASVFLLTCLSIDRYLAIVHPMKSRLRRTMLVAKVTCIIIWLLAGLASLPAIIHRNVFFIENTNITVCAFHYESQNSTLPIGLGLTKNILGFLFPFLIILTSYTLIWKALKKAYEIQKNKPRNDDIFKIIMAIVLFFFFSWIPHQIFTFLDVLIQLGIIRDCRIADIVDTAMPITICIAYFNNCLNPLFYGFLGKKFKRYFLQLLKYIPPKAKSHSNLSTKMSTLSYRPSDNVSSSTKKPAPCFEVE

[2] = target: T2, Serine/threonine-protein phosphatase (Candida dubliniensis (strain CD36 / CBS 7987 / NCPF 3949 / NRRLY-17841) (Yeast), UniProt B9W6M3); assay: calcineurin pathway inhibitors in yeast reporter, dose response, S. cerevisiae, CDRE-lacZ, luminescence, secondary (AID 2388); type: functional, cell-based;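 further: yeast reporter cells carrying a calcineurin-responsive lacZ construct stimulated with calcium chloride; luminescent beta-galactosidase reporter signal in whole cells rather than isolated phosphatase activity; potency for inhibition where a drop in reporter signal means calcineurin blockade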
T2 sequence (B9W6M3 whole entry): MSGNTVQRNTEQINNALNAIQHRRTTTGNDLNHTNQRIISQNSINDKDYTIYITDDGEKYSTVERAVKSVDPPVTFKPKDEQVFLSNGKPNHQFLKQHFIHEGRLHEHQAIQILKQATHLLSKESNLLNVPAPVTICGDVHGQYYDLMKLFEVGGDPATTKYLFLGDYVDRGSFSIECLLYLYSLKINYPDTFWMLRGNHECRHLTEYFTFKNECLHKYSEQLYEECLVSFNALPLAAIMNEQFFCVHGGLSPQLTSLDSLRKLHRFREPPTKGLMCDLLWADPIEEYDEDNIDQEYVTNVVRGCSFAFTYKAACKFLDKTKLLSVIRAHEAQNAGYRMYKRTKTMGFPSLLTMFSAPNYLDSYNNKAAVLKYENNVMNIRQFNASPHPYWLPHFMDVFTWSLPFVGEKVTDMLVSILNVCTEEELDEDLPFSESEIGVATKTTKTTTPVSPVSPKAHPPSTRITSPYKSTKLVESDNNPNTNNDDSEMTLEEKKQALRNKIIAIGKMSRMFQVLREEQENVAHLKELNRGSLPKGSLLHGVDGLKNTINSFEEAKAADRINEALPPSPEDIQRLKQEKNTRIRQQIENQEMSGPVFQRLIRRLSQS

[3] = target: T3, Sphingosine 1-phosphate receptor 4 (Homo sapiens, UniProt O95977); assay: Fluorescence dose response cell-based high throughput screening assay for antagonists of the Sphingosine 1-Phosphate Receptor 4 (S1P4). [Related pubchem assays: 1524 (Confirmation in triplicates.), 1510 (Primary screen.)]; type: functional
T3 sequence (O95977 whole entry): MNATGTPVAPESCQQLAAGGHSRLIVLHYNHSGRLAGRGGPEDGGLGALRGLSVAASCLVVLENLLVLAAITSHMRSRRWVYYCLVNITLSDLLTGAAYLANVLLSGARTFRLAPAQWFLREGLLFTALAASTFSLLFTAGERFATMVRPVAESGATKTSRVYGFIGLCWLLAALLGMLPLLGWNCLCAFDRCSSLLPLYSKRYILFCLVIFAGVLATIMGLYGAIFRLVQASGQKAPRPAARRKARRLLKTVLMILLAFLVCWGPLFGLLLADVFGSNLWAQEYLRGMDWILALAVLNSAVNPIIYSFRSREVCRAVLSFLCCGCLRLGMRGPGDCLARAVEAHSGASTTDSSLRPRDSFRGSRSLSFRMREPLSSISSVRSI

Vero = assay: cells; type: functional; details: Chlorocebus sabaeus
[4] = Vero E6 cell cytotoxicity, dose response, cytotoxicity control for non-replicating M. tuberculosis project, secondary assay (AID 492998); type: functional, VeroE6; details: Vero C1008
Beta-galactosidase = Beta-galactosidase (Escherichia coli, UniProt Q8VNN2); assay: PubChem AID 485352; type: functional
Sequence of Beta-galactosidase (Q8VNN2 whole entry): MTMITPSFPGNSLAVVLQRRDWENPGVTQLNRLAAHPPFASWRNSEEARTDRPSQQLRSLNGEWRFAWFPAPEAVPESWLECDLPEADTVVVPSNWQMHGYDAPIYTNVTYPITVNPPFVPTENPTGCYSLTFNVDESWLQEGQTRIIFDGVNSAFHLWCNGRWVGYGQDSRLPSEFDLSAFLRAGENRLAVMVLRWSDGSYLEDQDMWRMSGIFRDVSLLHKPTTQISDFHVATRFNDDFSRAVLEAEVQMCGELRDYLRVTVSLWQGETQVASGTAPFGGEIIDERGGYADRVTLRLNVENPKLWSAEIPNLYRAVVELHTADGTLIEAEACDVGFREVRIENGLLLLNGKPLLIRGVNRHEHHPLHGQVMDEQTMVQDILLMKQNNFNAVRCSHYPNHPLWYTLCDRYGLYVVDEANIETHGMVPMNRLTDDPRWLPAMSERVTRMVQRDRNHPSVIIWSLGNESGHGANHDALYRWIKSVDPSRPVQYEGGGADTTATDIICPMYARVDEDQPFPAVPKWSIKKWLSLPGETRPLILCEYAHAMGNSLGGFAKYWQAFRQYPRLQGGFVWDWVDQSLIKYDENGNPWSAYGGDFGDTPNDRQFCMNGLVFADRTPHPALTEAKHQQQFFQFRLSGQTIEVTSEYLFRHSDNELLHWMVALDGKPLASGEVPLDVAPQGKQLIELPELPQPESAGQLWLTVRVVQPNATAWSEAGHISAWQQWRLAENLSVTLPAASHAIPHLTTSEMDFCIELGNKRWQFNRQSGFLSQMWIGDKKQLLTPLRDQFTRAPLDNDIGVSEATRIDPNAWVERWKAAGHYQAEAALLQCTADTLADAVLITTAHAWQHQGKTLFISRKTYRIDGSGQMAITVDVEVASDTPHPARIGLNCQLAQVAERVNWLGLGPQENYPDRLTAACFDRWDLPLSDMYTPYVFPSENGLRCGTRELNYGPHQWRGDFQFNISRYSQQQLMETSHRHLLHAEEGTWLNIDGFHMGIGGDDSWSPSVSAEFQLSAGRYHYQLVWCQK

[5] = target: ATP-dependent molecular chaperone HSP82 (Candida albicans (strain WO-1) (Yeast), UniProt C4YTQ8); assay: loss of DOC-induced GRE-beta-galactosidase reporter signal, dose response, Hsp90 inhibitor project, S. cerevisiae, luminescence (AID 2400); type: functional, cell-based;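 further: beta-galactosidase luminescence from glucocorticoid response element reporter as proxy for Hsp90 function; inhibitor potency where signal loss means Hsp90 inhibition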
Sequence of ATP-dependent molecular chaperone HSP82 (C4YTQ8 whole entry): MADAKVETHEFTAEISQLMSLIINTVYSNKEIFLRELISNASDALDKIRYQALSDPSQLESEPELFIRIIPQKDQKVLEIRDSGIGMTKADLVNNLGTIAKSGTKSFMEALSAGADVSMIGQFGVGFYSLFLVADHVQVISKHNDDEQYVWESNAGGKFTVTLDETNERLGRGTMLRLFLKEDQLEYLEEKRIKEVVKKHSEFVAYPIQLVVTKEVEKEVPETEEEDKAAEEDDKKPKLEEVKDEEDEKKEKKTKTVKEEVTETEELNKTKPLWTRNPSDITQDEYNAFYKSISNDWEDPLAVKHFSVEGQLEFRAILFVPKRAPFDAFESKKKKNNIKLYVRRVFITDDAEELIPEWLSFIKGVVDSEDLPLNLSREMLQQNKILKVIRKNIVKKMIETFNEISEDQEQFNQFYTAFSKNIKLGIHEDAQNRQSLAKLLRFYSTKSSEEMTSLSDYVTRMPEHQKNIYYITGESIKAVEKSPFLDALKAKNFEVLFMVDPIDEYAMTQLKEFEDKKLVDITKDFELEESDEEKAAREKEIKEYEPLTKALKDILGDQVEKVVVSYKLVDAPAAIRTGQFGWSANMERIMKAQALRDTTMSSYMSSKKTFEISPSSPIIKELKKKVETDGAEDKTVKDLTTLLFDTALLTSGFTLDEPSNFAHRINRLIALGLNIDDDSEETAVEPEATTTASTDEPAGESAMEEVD

Protein RecA = target: T4, Protein RecA (Mycobacterium tuberculosis, UniProt P9WHJ3); assay: Fluorescence Cell-Free Homogeneous Dose Retest to Identify Inhibitors of RecA-Intein Splicing Activity. [Related pubchem assays (depositor defined):AID2097, AID2223, AID489010, AID492950]; type: functional
T4 sequence (P9WHJ3 whole entry): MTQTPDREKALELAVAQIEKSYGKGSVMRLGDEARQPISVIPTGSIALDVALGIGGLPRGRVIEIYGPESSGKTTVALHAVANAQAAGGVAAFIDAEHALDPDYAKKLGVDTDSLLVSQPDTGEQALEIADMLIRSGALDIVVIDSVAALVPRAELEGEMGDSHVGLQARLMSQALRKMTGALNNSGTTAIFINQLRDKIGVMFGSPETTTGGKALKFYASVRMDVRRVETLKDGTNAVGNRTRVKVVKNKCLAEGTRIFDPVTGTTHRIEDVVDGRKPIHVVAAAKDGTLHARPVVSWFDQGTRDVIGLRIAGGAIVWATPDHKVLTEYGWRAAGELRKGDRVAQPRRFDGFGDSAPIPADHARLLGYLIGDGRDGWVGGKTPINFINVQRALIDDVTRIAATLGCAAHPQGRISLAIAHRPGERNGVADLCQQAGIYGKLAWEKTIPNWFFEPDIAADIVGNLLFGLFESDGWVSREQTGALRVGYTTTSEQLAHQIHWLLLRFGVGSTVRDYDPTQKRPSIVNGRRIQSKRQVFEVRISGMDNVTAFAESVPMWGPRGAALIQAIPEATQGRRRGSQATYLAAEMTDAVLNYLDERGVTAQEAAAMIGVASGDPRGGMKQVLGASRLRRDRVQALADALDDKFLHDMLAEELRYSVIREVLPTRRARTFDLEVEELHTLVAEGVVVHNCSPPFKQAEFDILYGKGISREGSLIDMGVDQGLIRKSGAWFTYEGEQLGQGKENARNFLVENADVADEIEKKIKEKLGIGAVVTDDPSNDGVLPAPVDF

[6] = target: Heat shock protein HSP 90-alpha (Homo sapiens, UniProt P07900); assay: Luminescence-based dose response biochemical high throughput screening assay for inhibitors of the Heat Shock Protein 90 (HSP90). [Related pubchem assays: 1831 (Summary AID.), 1846 (Confirmation screen.), 1789 (Primary screen.)]
Paired box protein Pax-8 = Paired box protein Pax-8 (Homo sapiens, UniProt Q06710); assay: inhibitors of PAX8-driven TPO luciferase reporter, dose response, RMG-I cells, cherry-pick (AID 687027); type: functional, cell-based;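 further: luciferase reporter driven by Pax8 target thyroperoxidase promoter measured by SteadyGlo luminescence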
Sequence of Paired box protein Pax-8 (Q06710 whole entry): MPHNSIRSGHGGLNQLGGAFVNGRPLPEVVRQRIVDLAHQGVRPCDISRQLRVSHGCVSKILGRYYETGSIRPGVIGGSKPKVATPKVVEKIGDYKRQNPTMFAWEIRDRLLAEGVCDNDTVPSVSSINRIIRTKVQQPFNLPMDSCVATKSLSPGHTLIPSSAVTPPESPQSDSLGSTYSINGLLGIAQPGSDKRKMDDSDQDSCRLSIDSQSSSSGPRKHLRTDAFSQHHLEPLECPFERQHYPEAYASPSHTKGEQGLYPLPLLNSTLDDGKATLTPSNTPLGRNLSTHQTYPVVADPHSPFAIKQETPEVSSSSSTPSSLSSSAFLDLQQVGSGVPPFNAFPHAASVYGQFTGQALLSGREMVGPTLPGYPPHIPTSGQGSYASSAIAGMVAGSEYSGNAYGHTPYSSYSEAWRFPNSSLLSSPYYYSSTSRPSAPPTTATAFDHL

[7] = inhibitors of firefly luciferase expression or activity, dose response, H4 neuroglioma cells, luminescence (AID 1990); type: functional, cell-based
BJ = assay: cytotoxicity toward BJ-TERT-LT-ST fibroblasts, dose response, cell-based, RAS-independent, luminescence (AID 1935); type: functional; details: Homo sapiens;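 further: BJ fibroblasts immortalized with TERT plus LT and ST oncogenes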

Question: Which IC50 [1] does the source give for `Oc1c(C(c2ccccc2Cl)N2CCCC2)ccc2cccnc12` (configuration not stated) here?
Answer: Its IC50 is 12 µM (active).

Question: What about the EC50 [2] of the same compound?
Answer: Its EC50 is > 180 µM (inactive).

Question: What about the IC50 [3] of the same compound?
Answer: Its IC50 is 2.25 µM (active).

Question: What about the CC50 (Vero) of the same compound?
Answer: Its CC50 is 17.1 µM (active).

Question: What about the CC50 [4] of the same compound?
Answer: The CC50 was 9.56 µM (active).

Question: And the EC50 (Beta-galactosidase)?
Answer: Its EC50 is > 40 µM (inactive).

Question: What about the EC50 [5] of the same compound?
Answer: Its EC50 is > 160 µM (inactive).

Question: Which EC50 (Protein RecA) does the source give for `CCc1ccc(S(=O)(=O)/N=C2\C=C(Nc3ccc(C(=O)O)cc3)C(=O)c3ccccc32)cc1` here?
Answer: The EC50 was 0.124 µM (active).

Question: And the IC50 [6]?
Answer: Its IC50 is 0.966 µM (active).

Question: For `COc1cccc(/C=N/Nc2ccc([N+](=O)[O-])cn2)c1O`, which AC50 (Paired box protein Pax-8) is on record?
Answer: The AC50 was 6.41 µM (active).

Question: What about the EC50 [7] of the same compound?
Answer: Its EC50 is 2.97 µM (active).

Question: What about the EC50 (BJ) of the same compound?
Answer: Its EC50 is 4.96 µM (inconclusive).
